Assay results taken from the supplement of paper PMC10307832.

Assays:
Experiment in all cases: relative viability (nuclei count vs DMSO), 5 days (fraction); higher = more cells survive
[1] = compound: C[C@]12O[C@H](C[C@]1(O)CO)n1c3ccccc3c3c4c(c5c6ccccc6n2c5c31)CNC4=O [Lestaurtinib] + Cc1cc(Nc2cc(N3CCN(C)CC3)nc(Sc3ccc(NC(=O)C4CC4)cc3)n2)n[nH]1 [Tozasertib] (partner 0.1 µM)
Summary of the method: (§1)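 Relative viability divides the nuclei count in treated wells by that in vehicle wells. Lung cancer cell lines were seeded in 1536-well plates, dosed by pin tool the next day, and fixed and stained after 5 days in one step with final 0.05% Triton X-100, 1% formaldehyde and 1 ug/ml Hoechst. Dosing was a single drug or a fixed anchor-drug dose plus five library-drug doses (not always all listed) in √10 steps, and values are medians of duplicate plates imaged at 4×.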

[2] = compound: C1/C(=C\C2=CC=CS2)/C(=O)/C(=C/C3=CC=CS3)/C1 + COc1cc2c(Oc3ccc(NC(=O)C4(C(=O)Nc5ccc(F)cc5)CC4)cc3F)ccnc2cc1OCCCN1CCOCC1 [Foretinib] (partner 0.25 µM)
Summary of the method: as §1

[3] = compound: C[C@]12O[C@H](C[C@]1(O)CO)n1c3ccccc3c3c4c(c5c6ccccc6n2c5c31)CNC4=O [Lestaurtinib] + Nc1ncn([C@H]2C[C@H](O)[C@@H](CO)O2)c(=O)n1 [Decitabine] (partner 2 µM)
Summary of the method: as §1

TPCA-1 + Pemetrexed = compound: C1=CC(=CC=C1C2=CC(=C(S2)NC(=O)N)C(=O)N)F [TPCA-1] + Nc1nc2[nH]cc(CCc3ccc(C(=O)N[C@@H](CCC(=O)O)C(=O)O)cc3)c2c(=O)[nH]1 [Pemetrexed] (partner 0.2 µM)
Summary of the method: as §1

Cell Line	relative viability ([1]; first compound 0.005 µM)	relative viability ([1]; first compound 0.01581 µM)	relative viability ([1]; first compound 0.05 µM)	relative viability ([1]; first compound 0.1581 µM)	relative viability ([1]; first compound 0.5 µM)	relative viability ([2]; first compound 0.2 µM)	relative viability ([2]; first compound 0.6325 µM)	relative viability ([2]; first compound 2 µM)	relative viability ([2]; first compound 6.325 µM)	relative viability ([2]; first compound 20 µM)	relative viability ([3]; first compound 0.005 µM)	relative viability ([3]; first compound 0.01581 µM)	relative viability ([3]; first compound 0.05 µM)	relative viability ([3]; first compound 0.5 µM)	relative viability (TPCA-1 + Pemetrexed; first compound 0.04 µM)	relative viability (TPCA-1 + Pemetrexed; first compound 0.1265 µM)	relative viability (TPCA-1 + Pemetrexed; first compound 0.4 µM)	relative viability (TPCA-1 + Pemetrexed; first compound 1.265 µM)	relative viability (TPCA-1 + Pemetrexed; first compound 4 µM)	relative viability ([3]; first compound 0.1581 µM)
NCI-H727	0.598	0.728	0.63	0.584	0.41	0.907	0.802	1.1	0.815	0.96	0.957	0.87	0.882	0.579						
HARA	0.126	0.106	0.111	0.108	0.102	0.875	0.992	0.973	0.832	0.842	0.699	0.749	0.613	0.214	0.242	0.226	0.226	0.198	0.223	0.513
NCI-H2228	0.178	0.23	0.257	0.219	0.163	0.816	0.992	0.869	0.913	0.715					0.364	0.322	0.319	0.316	0.306	
LCLC-97TM1	0.317	0.177	0.0893	0.133	0.171	0.965	0.97	0.995	0.797	0.943		0.242	0.207	0.257	0.17	0.186	0.163	0.153	0.154	0.245
LC-2-ad	0.441	0.498	0.442	0.393	0.289	0.971	0.941	0.99	0.817	0.89	0.912	0.829	0.755	0.476	0.262	0.299	0.27	0.283	0.206	0.654
SK-LU-1	0.288	0.349	0.267	0.293	0.204	0.846	0.85	0.937	0.795	0.831	0.634	0.607	0.48	0.349	1.03	0.94	0.986	0.831	0.73	0.424
EKVX	0.345	0.432	0.417	0.378	0.395	0.82	0.696	0.603	0.615	0.778	0.518		0.357	0.342	0.43		0.343	0.329	0.375	0.396
HCC-827	0.492	0.405	0.396	0.348	0.217	1.04	0.939	1.02	0.96	1	0.298	0.38	0.331	0.282	0.252	0.267	0.281	0.256	0.276	0.367
NCI-H650	0.727	0.802	0.603	0.483	0.29	1.02	0.926	0.933	0.945	0.999	0.332	0.362	0.353	0.326	0.952	0.916	0.994	0.631	0.809	0.335
CAL-12T	0.32	0.44	0.333	0.37	0.332	1.34	1.02	1.09	0.981	1.03					1.12	0.968	1.17	1.09	0.828	
NCI-H2342	0.528	0.502	0.538	0.418	0.418	1.08	1.28	1.17	0.989	1.1	0.713	0.76	0.742	0.77	0.821	0.709	0.778	0.609	0.584	0.722
SW 900	0.462	0.683	0.503	0.703	0.538	0.823	0.817	0.804	0.9	1.16	0.405	0.372	0.451	0.541			0.492	0.495	0.468	0.624
IA-LM						1.17	1.24	1.21	1.08	1.06										
EPLC-272H	0.297	0.282	0.322	0.231	0.128	0.602	0.776	0.657	0.594	0.601	0.334	0.354	0.327	0.3	0.287	0.331	0.371	0.359	0.266	0.278
A-427	0.199	0.206	0.183	0.159	0.144	1.04	1.01	1.06	0.992	1.16	0.548	0.544	0.518	0.2	1.01	0.918	1.11	1.05	0.388	0.347
NCI-H647	0.375	0.328	0.188	0.124	0.126	1.21	1.22	1.11	0.948	1.21	0.415	0.404	0.337	0.173	0.177	0.172	0.183	0.163	0.182	0.311
NCI-H1975	0.943	1.02	0.715	0.552	0.486	0.971	0.979		0.771	0.895	0.395	0.39	0.356	0.338	0.305	0.297	0.3	0.298	0.286	0.36
